Work on `O=c1ccc(-c2ccccc2)n[nH]1` yielded a solubility (mole fraction) (in ethanol, 278.15 K) of 0.00242, a solubility (mole fraction) (in ethanol, 283.15 K) of 0.00289 and a solubility (mole fraction) (in ethanol, 288.15 K) of 0.00342. For the same compound, the solubility (mole fraction) (in ethanol, 293.15 K) was 0.00402, the solubility (mole fraction) (in ethanol, 298.15 K) was 0.00466 and the solubility (mole fraction) (in ethanol, 303.15 K) was 0.00547. The solubility (mole fraction) (in ethanol, 308.15 K) was 0.00637, the solubility (mole fraction) (in ethanol, 313.15 K) was 0.00736 and the solubility (mole fraction) (in ethanol, 318.15 K) was 0.00846. It also gave a solubility (mole fraction) (in ethylene glycol, 278.15 K) of 0.00304, a solubility (mole fraction) (in ethylene glycol, 283.15 K) of 0.00369 and a solubility (mole fraction) (in ethylene glycol, 288.15 K) of 0.00445. For the same compound, the solubility (mole fraction) (in ethylene glycol, 293.15 K) was 0.00536, the solubility (mole fraction) (in ethylene glycol, 298.15 K) was 0.00646 and the solubility (mole fraction) (in ethylene glycol, 303.15 K) was 0.0076. It also gave a solubility (mole fraction) (in ethylene glycol, 308.15 K) of 0.00905, a solubility (mole fraction) (in ethylene glycol, 313.15 K) of 0.0106 and a solubility (mole fraction) (in ethylene glycol, 318.15 K) of 0.0124. The solubility (mole fraction) (in isopropanol, 278.15 K) was 0.00411, the solubility (mole fraction) (in isopropanol, 283.15 K) was 0.00489 and the solubility (mole fraction) (in isopropanol, 288.15 K) was 0.00579. It also gave a solubility (mole fraction) (in isopropanol, 293.15 K) of 0.00684, a solubility (mole fraction) (in isopropanol, 298.15 K) of 0.00795 and a solubility (mole fraction) (in isopropanol, 303.15 K) of 0.0094. For the same compound, the solubility (mole fraction) (in isopropanol, 308.15 K) was 0.0109, the solubility (mole fraction) (in isopropanol, 313.15 K) was 0.0126 and the solubility (mole fraction) (in isopropanol, 318.15 K) was 0.0142. The solubility (mole fraction) (in methanol, 278.15 K) was 0.00124, the solubility (mole fraction) (in methanol, 283.15 K) was 0.00153 and the solubility (mole fraction) (in methanol, 288.15 K) was 0.00183. For the same compound, the solubility (mole fraction) (in methanol, 293.15 K) was 0.0022, the solubility (mole fraction) (in methanol, 298.15 K) was 0.00265 and the solubility (mole fraction) (in methanol, 303.15 K) was 0.00309. The solubility (mole fraction) (in methanol, 308.15 K) was 0.00365, the solubility (mole fraction) (in methanol, 313.15 K) was 0.00432 and the solubility (mole fraction) (in methanol, 318.15 K) was 0.00502. It also gave a solubility (mole fraction) (in water, 278.15 K) of 2.53e-06, a solubility (mole fraction) (in water, 283.15 K) of 3.14e-06 and a solubility (mole fraction) (in water, 288.15 K) of 3.86e-06. For the same compound, the solubility (mole fraction) (in water, 293.15 K) was 4.72e-06, the solubility (mole fraction) (in water, 298.15 K) was 5.84e-06 and the solubility (mole fraction) (in water, 303.15 K) was 7.08e-06. The solubility (mole fraction) (in water, 308.15 K) was 8.51e-06, the solubility (mole fraction) (in water, 313.15 K) was 1.02e-05 and the solubility (mole fraction) (in water, 318.15 K) was 1.22e-05.

— BigSolDB 2.1
